What all share (assay type): cell-based, human
One series relates to P-JNK1/2(T183/Y185). Put plainly: JNK MAP kinase activation by sMICA plus crosslinking anti-His tag Ab (immunoblot). As to conditions: for phosphorylation of JNK1/2: desensitized EpCAM+CD45− ovarian cancer (OT63), HTB-78, MCF-7-TF cells, sMICA 1 μg/ml crosslinked by anti-His tag Ab, or EGF 100 ng/ml. An excerpt:
(§1) NKG2D was immunoprecipitated from standard NP-40 buffer lysates of FACSAria-sorted EpCAM^+CD45^− cancer cells (˜5×10^6 per lane), tumor lines (˜5×10^7 cells; 2×10^7 cells with BT-20), and transfectants (5×10^6 cells) using mAb 5C6 immobilized on AminoLink Plus Coupling Resin (Pierce). DAP10 was immunoprecipitated using rabbit polyclonal antibodies (FL-93; Santa Cruz Biotechnology). Immunoblots were probed with polyclonal antibodies to NKG2D or DAP10 (N-20 and N-17; Santa Cruz Biotechnology), or Grb2 (Cell Signaling Technology) and developed using secondary reagents and Supersignal West Dura Extended Duration Substrate (Pierce). Immunoprecipitation and immunoblot detection of mouse NKG2D utilized a rat mAb (clone 191004; R&D Systems) and goat polyclonal reagent (H-15; Santa Cruz Biotechnology), respectively. For P-AKT induction, cancer cells and tumor lines (2×10^6 cells per experimental condition) cultured in 6-well plates were desensitized for 16 h and 4-24 h, respectively, in serum-free RPMI at 37° C. before exposure in 0.5 ml RPMI to insulin (5 μg/ml; 35 min at 37° C.), mAb 1D11 (purified with MabTrap Kit; GE Healthcare Life Sciences) or mAb 5C6 F(ab′)2 (produced with Pierce F(ab′)2 preparation kit) (each 5 μg/ml; 30 min at 4° C.). For crosslinking, washed cells in 0.2 ml RPMI were exposed to goat anti-mouse F(ab′)2 (20 μg/ml; 5 min at 37° C.; Jackson ImmunoResearch). Wortmannin (100 nM; Sigma) was applied 2 h before stimulations. Reactions were terminated on ice by addition of 1 ml sodium orthovanadate (Na3VO4, 2 mM in cold PBS; Calbiochem) and cells resuspended in NP-40 lysis buffer with protease inhibitor cocktail (Roche) and Na3VO4. Cleared supernatants were subjected to SDS-PAGE (4-12% gradient NuPAGE gels; Invitrogen) and proteins electroblotted onto PVDF membranes (Immobilon-P; Millipore), which were probed with rabbit anti-human phospho-AKT(S473) (clone 193H12) or pan-AKT (clone C67E7), secondary HRP-conjugated anti-rabbit IgG (all from Cell Signaling Technology), and chemiluminescent reagent. […] Inhibitors wortmannin (100 nM) and rapamycin (50 nM; LC Laboratories) were added after 2 h of desensitization. Detached cells were sequentially washed and exposed to 1D11 mAb and crosslinking Ab in 0.5 and 0.2 ml cold HBSS, respectively, and processed as above. […] Phosphoproteins and protein controls were detected using rabbit polyclonal antibodies (to P-mTOR, P-S6K1, and P-4E-BP1), mAbs (clones 7C10, 236B4, and 53H11), and anti-rabbit IgG-HRP (all from Cell Signaling Technology). MAPKs were detected with cells grown to semi-confluence in 6-well plates and desensitized for 24 h. […]
(§2) As determined so far, signaling pathway activation by NKG2D-DAP10 in tumor cells was similar to lymphocytes. […]

The next series relates to P-ERK1/2(T202/Y204). Put plainly: ERK MAP kinase activation by sMICA plus crosslinking anti-His tag Ab (immunoblot). As to conditions: for phosphorylation of ERK1/2: desensitized EpCAM+CD45− ovarian cancer (OT63), HTB-78, MCF-7-TF cells, sMICA 1 μg/ml crosslinked by anti-His tag Ab, or EGF 100 ng/ml.
Excerpt: as §1, §2

For series [1], the system named is P-AKT(S473). The experiment in a line: P-AKT induction after NKG2D crosslinking in freshly isolated cancer cells (immunoblot). The note with it: sorted EpCAM+CD45− breast, ovarian, prostate cancer cells after serum deprivation; crosslinked Ab 5 μg/ml or insulin 5 μg/ml. The source says: (§3) NKG2D was immunoprecipitated from standard NP-40 buffer lysates of FACSAria-sorted EpCAM^+CD45^− cancer cells (˜5×10^6 per lane), tumor lines (˜5×10^7 cells; 2×10^7 cells with BT-20), and transfectants (5×10^6 cells) using mAb 5C6 immobilized on AminoLink Plus Coupling Resin (Pierce). DAP10 was immunoprecipitated using rabbit polyclonal antibodies (FL-93; Santa Cruz Biotechnology). Immunoblots were probed with polyclonal antibodies to NKG2D or DAP10 (N-20 and N-17; Santa Cruz Biotechnology), or Grb2 (Cell Signaling Technology) and developed using secondary reagents and Supersignal West Dura Extended Duration Substrate (Pierce). Immunoprecipitation and immunoblot detection of mouse NKG2D utilized a rat mAb (clone 191004; R&D Systems) and goat polyclonal reagent (H-15; Santa Cruz Biotechnology), respectively. […] Phosphoproteins and protein controls were detected using rabbit polyclonal antibodies (to P-mTOR, P-S6K1, and P-4E-BP1), mAbs (clones 7C10, 236B4, and 53H11), and anti-rabbit IgG-HRP (all from Cell Signaling Technology). MAPKs were detected with cells grown to semi-confluence in 6-well plates and desensitized for 24 h. […]

For series [2], the system named is P-mTOR(S2448), P-S6K1(T389), and P-4E-BP1(T37/46). Put plainly: Activation of mTOR-S6K1/4E-BP1 after NKG2D crosslinking (immunoblot). As to conditions: HTB-78 and MCF-7-TF cells after starvation.
Method: Detached cells were sequentially washed and exposed to 1D11 mAb and crosslinking Ab in 0.5 and 0.2 ml cold HBSS, respectively, and processed as above. Sample electrophoresis was in 3-8% (mTOR) and 4-12% (4E-BP1) gradient NuPAGE gels. Phosphoproteins and protein controls were detected using rabbit polyclonal antibodies (to P-mTOR, P-S6K1, and P-4E-BP1), mAbs (clones 7C10, 236B4, and 53H11), and anti-rabbit IgG-HRP (all from Cell Signaling Technology).
The test system of series [3] is P-AKT(S473). Put plainly: P-AKT induction after NKG2D crosslinking in tumor lines (immunoblot). The note with it: desensitized MCF-7, BT-20, MDA-MB-453, HTB-78, DLD-1, AGS cells.
Excerpt: as §3

For another series, the system named is surface NKG2D. The experiment in a line: Flow cytometry of tumor lines for surface NKG2D. As to conditions: breast, colon, gastric, ovarian, prostate tumor lines after exposure. Here is the method: Tumor cell lines BT-20, MDA-MB-453, HTB-78, AGS, MDA-MB-231, DLD-1, PC3, and A375 were grown in RPMI 1640, and MCF-7 in Eagle's minimal essential medium (EMEM) plus insulin (0.01 mg/ml; Sigma), both media supplemented with 10% FBS. The mouse TEC and PAM 212 lines were from the ATCC, and […] was provided by Dr. Norm Greenberg (FHCRC). Abs for immunohistochemistry and flow cytometry of cell surface markers were mAb together with HRP-conjugated secondary reagents and mAb-fluorochrome conjugates, respectively, to NKG2D (clone 1D11, -APC; 3), MICA/MICB (clone 6D4, -PE; 7), CD45 (clone 2D1, -APC-Cy7), CD3 (clone UCHT1) (all from BD Pharmingen), and EpCAM (clone 9C4, -Alexa Fluor 488; BioLegend). Binding of anti-ULBP1-5 antibodies (mAbs 3F1, 6F6, 4F9, 6E6, and 6D10; 14) was visualized with a PE-conjugated secondary reagent. Cancer cell viability was assessed using a LIVE/DEAD Fixable Violet Dead Cell Stain kit (Invitrogen). Immunohistochemistry stainings of tissue cryosections employed the Envision System (Dako) protocol. Cells were examined for mAb surface stainings using a BD LSR II flow cytometer and FlowJo software (Tree Star).

Series [4] deals with AKT(S473) phosphorylation. Put plainly: Inducible AKT phosphorylation in siRNA-transduced MCF-7 cells. As to conditions: lentiviral siRNA transduction.
Excerpt: as §3

The next series has as its system MCF-7 cells. Put plainly: Expansion of siRNA-transduced MCF-7 cells.
The next series relates to DAP10. The experiment in a line: DAP10 protein depletion by siRNA (immunoblot). As to conditions: CD8 T cells, 2×10^6 per lane.
Excerpt: as §3

Setting [5] is: U0126 10 μM, SP600125 100 μM, wortmannin 200 nM, added 30 min before stimulation.
Where [6] appears, read: tumor cell exposure to sMICA or anti-His tag Ab alone, no crosslinking.

Consider “EGF: rhEGF, positive control activation of MAP kinases [reference compound]”, for which the “phosphorylation of JNK1/2” value in the series with P-JNK1/2(T183/Y185) is on record as “positive control activation”. The “phosphorylation of ERK1/2” value in the series with P-ERK1/2(T202/Y204) is recorded as “positive control activation”.
For the molecule `N#CC(=C(/N)Sc1ccccc1N)/C(C#N)=C(\N)Sc1ccccc1N` [U0126, reference compound], the “effect of inhibitor on appearance of P-JNK1/2” value in the series on P-JNK1/2(T183/Y185) (setting [5]) is “not vice versa”. In addition, the “effect of inhibitor on appearance of P-ERK1/2” value in the series with P-ERK1/2(T202/Y204) (setting [5]) is on record as “diminished”.
On to “insulin: positive control activation of AKT, 5 μg/ml”, for which the “induction of Phospho-AKT (P-AKT)” value with P-AKT(S473) [1] is recorded as “positive control activation except for the unresponsive prostate cancer cells”. The “induction of P-mTOR(S2448), P-S6K1(T389), P-4E-BP1(T37/46)” value in series [2] is listed as “positive control activation”. Moreover, the “induction of P-AKT” value with P-AKT(S473) [3] is listed as “positive control activation”.
As to “IL-15: cytokine which induces T cell NKG2D”, the “surface NKG2D expression” value in the series with surface NKG2D is “No increased expression”.

B1: DAP10 siRNA: lentivirally expressed hairpin siRNA targeting DAP10 (HCST) mRNA positions 165-193; oligonucleotides SEQ ID NO:21 and 22 (nucleic acid, listed as Homo sapiens)
chain 1: CTAGAAGCTCAGACGACTCCAGGAGAGAGATCATTCAAGAGATGATCTCTCTCCTGGAGTCGTCTGAGCTTTTTTTGAT
chain 2: ATCAAAAAAAGCTCAGACGACTCCAGGAGAGAGATCATCTCTTGAATGATCTCTCTCCTGGAGTCGCTGAGCTT
modifications: the letters are possibly those of the target site
Regarding B1, the “inducible AKT(S473) phosphorylation” value in [4] is reported as “Absence of inducible AKT(S473) phosphorylation”. Moreover, the “proliferation of transduced cells” value in the series on MCF-7 cells was “proliferated poorly”. In the series on DAP10, the “depletion of DAP10” value was “depletion”.

B2: sMICA: recombinant soluble MICA, His-tagged NKG2D ligand purified from transfected 293T cells (protein)
chain: EPHSLRYNLTVLSWDGSVQSGFLTEVHLDGQPFLRCDRQKCRAKPQGQWAEDVLGNKTWDRETRDLTGNGKDLRMTLAHIKDQKEGLHSLQEIRVCEIHEDNSTRSSQHFYYDGELFLSQNLETKEWTMPQSSRAQTLAMNVRNFLKEDAMKTKTHYHAMHADCLQELRRYLKSGVVLRRTVPPMVNVTRSEASEGNITVTCRASGFYPWNITLSWRQDGVSLSHDTQQWGDVLPDGNGTYQTWVATRICQGEEQRFTCYMEHSGNHSTHPVPSGKVLVLQSHW
modifications: left off: small tags and cut ends
notes: recombinant soluble MICA, His-tagged NKG2D ligand purified from transfected 293T cells
In the case of B2, in the series with P-JNK1/2(T183/Y185), the “phosphorylation of JNK1/2” value is “resulted in phosphorylation”. In the series with P-JNK1/2(T183/Y185) (setting [6]), the “phosphorylation of JNK1/2, reagent alone” value was “no effect”. In addition, the “phosphorylation of ERK1/2” value with P-ERK1/2(T202/Y204) is “resulted in phosphorylation”. Moreover, in the series with P-ERK1/2(T202/Y204) (setting [6]), the “phosphorylation of ERK1/2, reagent alone” value is recorded as “no effect”.

For the origin of these results see US10040853B2, “Methods and compositions involving NKG2D inhibitors and cancer” (Fred Hutchinson Cancer Research Center, priority 2011, dated 2018).
